# From patent US12528819B2 (priority 2016, dated 2026)
# “Also recorded” adds a separate entry of the source.
# Assays:
# aged-impaired (AI) rats [1] = experiment: Radial Arm Maze (RAM) behavioral task, spatial memory retention; assay type: in vivo, rat; details: four-hour delay
# Description: The effects of methyl 3,5-diphenylpyridazine-4-carboxylate on the in vivo spatial memory retention of aged-impaired (AI) rats were assessed in a Radial Arm Maze (RAM) behavioral task using vehicle control and four different dosage levels of methyl 3,5-diphenylpyridazine-4-carboxylate (0.1 mg/kg, 0.3 mg/kg, 1 mg/kg and 3 mg/kg, ip). RAM behavioral tasks were performed on eight AI rats. All five treatment conditions (vehicle and four dosage levels) were tested on all eight rats.
# The RAM apparatus used consisted of eight equidistantly-spaced arms. An elevated maze arm (7 cm width×75 cm length) projected from each facet of an octagonal center platform (30 cm diameter, 51.5 cm height). Clear side walls on the arms were 10 cm high and were angled at 65° to form a trough. A food well (4 cm diameter, 2 cm deep) was located at the distal end of each arm. Froot Loops™ (Kellogg Company) were used as rewards. Blocks constructed of Plexiglas™ (30 cm height×12 cm width) could be positioned to prevent entry to any arm. Numerous extra maze cues surrounding the apparatus were also provided.
# The AI rats were initially subjected to a pre-training test (Chappell et al. Neuropharmacology 37: 481-487, 1998). The pre-training test consisted of a habituation phase (4 days), a training phase on the standard win-shift task (18 days) and another training phase (14 days) in which a brief delay was imposed between presentation of a subset of arms designated by the experimenter (e.g., 5 arms available and 3 arms blocked) and completion of the eight-arm win-shift task (i.e., with all eight arms available).
# In the habituation phase, rats were familiarized to the maze for an 8-minute session on four consecutive days. In each of these sessions, food rewards were scattered on the RAM, initially on the center platform and arms and then progressively confined to the arms. After this habituation phase, a standard training protocol was used, in which a food pellet was located at the end of each arm. Rats received one trial each day for 18 days. Each daily trial terminated when all eight food pellets had been obtained or when either 16 choices were made or 15 minutes had elapsed. After completion of this training phase, a second training phase was carried out in which the memory demand was increased by imposing a brief delay during the trial. At the beginning of each trial, three arms of the eight-arm maze were blocked. Rats were allowed to obtain food on the five arms to which access was permitted during this initial “information phase” of the trial. Rats were then removed from the maze for 60 seconds, during which time the barriers on the maze were removed, thus allowing access to all eight arms. […]
# GABAA α5 receptor = biological target: T1, GABAA α5 receptor (Rattus norvegicus, UniProt P18508+P19969); experiment: GABAA α5 receptor occupancy with Ro 15-4513 tracer (hippocampus vs cerebellum); assay type: in vivo; details: i.v.
# T1 construct: from tissue; host or cells: rat brain in vivo; hippocampus versus cerebellum
# Text: Food and water were available ad libitum.
# aged-impaired (AI) rats [2] = experiment: Morris water maze behavioral task, ICV infusion; assay type: in vivo, rat; details: 100 μg ICV
# Description: The effects of 6,6 dimethyl-3-(3-hydroxypropyl)thio-1-(thiazol-2-yl)-6,7-dihydro-2-benzothiophen-4(5H)-one on the in vivo spatial memory retention of aged-impaired (AI) rats were assessed in a Morris water maze behavioral task. A water maze is a pool surrounded with a novel set of patterns relative to the maze.
# Cognitively impaired aged rats were implanted unilaterally with a cannula into the lateral ventricle. Stereotaxic coordinates were 1.0 mm posterior to bregma, 1.5 mm lateral to midline, and 3.5 mm ventral to the skull surface. After about a week of recovery, the rats were pre-trained in a water maze for 2 days (6 trials per day) to locate a submerged escape platform hidden underneath the surface of the pool, in which the escape platform location varied from day to day. No intracerebroventricular (ICV) infusion was given during pre-training.
# After pre-training, rats received ICV infusion of either 100 μg 6,6 dimethyl-3-(3-hydroxypropyl)thio-1-(thiazol-2-yl)-6,7-dihydro-2-benzothiophen-4(5H)-one (n=6) in 5 μl DMSO or vehicle DMSO (n=5) 40 min prior to water maze training and testing. Training consisted of 8 trials per day for 2 days where the hidden escape platform remained in the same location. Rats were given 60 seconds to locate the platform with a 60 seconds inter-trial interval. The rats were given a probe test (120 seconds) 24 hr. after the end of training where the escape platform was removed. During the training, there were 4 blocks, where each block had 4 training trials.
# During a test trial 24 hr. after training, the escape platform was removed. The search/swim pattern of the rats was used to measure whether the rats remember where the escape platform was located during pre-trial training in order to test for the long-term memory of the rats. In this trial, “target annulus” is a designated area 1.5 times the size of the escape platform around the area where the platform was located during pre-trial training. “Opposite annulus” is a control area of the same size as the size of the target annulus, which is located opposite to the target annulus in the pool. If the rats had good long term memory, they would tend to search in the area surrounding the location where the platform was during the pre-trial training (i.e., the “target” annulus; and not the “opposite” annulus). “Time in annulus” is the amount of time in seconds that the rat spent in the target or opposite annulus area. “Number (#) of crossings” in annulus is the number of times the rat swam across the target or opposite annulus area.
# α5β2γ2 subtype GABAAR = biological target: T2, α5β2γ2 subtype GABAAR (Homo sapiens, UniProt P18507+P31644); experiment: Positive allosteric modulator activity: potentiation of EC20 GABA current in oocytes; assay type: cell-based; details: read-out: GABA α5 Functional Data (potentiation), @ 100 nM, reported as ranges
# T2 construct: expressed in transfected cells
# T2 sequence (P31644 32-462): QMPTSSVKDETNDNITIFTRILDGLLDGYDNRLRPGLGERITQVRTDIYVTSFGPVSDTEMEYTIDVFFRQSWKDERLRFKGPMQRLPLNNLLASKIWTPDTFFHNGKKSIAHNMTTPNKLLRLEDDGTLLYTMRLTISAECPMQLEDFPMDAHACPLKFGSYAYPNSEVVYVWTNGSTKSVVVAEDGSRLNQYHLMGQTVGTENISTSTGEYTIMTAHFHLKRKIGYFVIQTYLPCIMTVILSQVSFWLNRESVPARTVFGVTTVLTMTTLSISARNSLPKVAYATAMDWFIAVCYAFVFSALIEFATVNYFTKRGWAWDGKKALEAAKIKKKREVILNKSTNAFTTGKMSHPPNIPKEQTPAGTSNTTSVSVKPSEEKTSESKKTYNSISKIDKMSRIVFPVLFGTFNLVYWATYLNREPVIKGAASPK
# T2 sequence (P47870 25-512 partner limits assumed): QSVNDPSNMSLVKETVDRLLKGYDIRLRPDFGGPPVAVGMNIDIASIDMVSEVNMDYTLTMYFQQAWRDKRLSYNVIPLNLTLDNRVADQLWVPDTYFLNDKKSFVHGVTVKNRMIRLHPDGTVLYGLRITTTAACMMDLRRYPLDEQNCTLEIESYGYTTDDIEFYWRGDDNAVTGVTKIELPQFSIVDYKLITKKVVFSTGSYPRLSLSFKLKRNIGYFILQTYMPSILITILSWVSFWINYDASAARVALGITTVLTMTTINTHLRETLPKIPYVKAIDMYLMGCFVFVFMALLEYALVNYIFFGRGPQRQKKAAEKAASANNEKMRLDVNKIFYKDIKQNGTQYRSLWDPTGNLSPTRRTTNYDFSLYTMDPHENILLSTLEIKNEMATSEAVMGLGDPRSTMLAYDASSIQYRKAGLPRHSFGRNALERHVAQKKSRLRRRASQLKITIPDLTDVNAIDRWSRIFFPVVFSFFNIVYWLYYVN
# T2 sequence (P18507 40-467 limits assumed): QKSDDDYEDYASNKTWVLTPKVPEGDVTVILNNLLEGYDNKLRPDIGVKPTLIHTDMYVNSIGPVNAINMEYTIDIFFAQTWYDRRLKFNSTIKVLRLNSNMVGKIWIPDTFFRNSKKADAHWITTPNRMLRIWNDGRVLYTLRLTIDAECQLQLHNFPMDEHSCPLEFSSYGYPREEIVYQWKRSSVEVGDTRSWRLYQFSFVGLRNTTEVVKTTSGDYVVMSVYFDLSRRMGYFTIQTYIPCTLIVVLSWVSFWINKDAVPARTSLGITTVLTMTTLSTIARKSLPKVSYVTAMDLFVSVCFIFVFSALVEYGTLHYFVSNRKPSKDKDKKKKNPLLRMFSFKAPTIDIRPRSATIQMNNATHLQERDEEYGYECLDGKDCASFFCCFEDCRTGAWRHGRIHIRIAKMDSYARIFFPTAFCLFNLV
# Outline: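 Xenopus oocytes injected with 1 ng α5:β2:γ2 cDNA (1:1:10 by weight) and recorded on day 2 by two-electrode voltage clamp under MBS superfusion. Potentiation (%) = Itest/IGABA at EC20 GABA; each oocyte used for one concentration only.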
# MAM-treated rats = details: cited from earlier work
# [3] = probe test 24 hr. after training
# T1 sequence (P19969 32-464 limits assumed): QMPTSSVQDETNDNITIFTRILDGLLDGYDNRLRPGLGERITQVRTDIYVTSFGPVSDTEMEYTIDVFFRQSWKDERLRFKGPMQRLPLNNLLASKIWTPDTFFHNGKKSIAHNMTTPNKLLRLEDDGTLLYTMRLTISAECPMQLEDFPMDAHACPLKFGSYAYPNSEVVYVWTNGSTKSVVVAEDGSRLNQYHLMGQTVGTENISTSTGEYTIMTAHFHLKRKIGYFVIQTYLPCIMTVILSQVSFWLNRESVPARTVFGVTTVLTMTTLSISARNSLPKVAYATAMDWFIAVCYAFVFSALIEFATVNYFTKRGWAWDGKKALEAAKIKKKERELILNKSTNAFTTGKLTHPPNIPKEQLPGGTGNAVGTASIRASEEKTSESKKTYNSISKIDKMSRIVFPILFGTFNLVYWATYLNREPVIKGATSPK
# T1 sequence (P18508 39-466): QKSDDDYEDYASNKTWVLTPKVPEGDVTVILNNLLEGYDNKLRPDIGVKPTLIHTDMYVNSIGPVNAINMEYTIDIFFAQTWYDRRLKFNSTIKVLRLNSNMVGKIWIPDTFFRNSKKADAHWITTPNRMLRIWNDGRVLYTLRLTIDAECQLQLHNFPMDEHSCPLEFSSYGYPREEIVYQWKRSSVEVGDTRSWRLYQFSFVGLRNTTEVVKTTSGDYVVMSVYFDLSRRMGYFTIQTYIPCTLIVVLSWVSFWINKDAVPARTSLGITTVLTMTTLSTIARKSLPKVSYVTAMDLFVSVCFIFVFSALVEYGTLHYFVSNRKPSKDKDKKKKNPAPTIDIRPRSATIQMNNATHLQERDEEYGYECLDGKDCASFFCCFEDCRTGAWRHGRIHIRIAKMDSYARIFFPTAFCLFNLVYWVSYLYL
smiles,measurement,setting,value
CCOC(=O)c1ncn2c1Cn1c(C)nnc1-c1cc(OC)ccc1-2,memory performance relative to vehicle control,"aged-impaired (AI) rats [1]; 3 mg/kg, t(7)=4.13, p=0.004, or t(7)=3.08, p=0.018",significantly improved memory performance
same,memory performance relative to vehicle control,"aged-impaired (AI) rats [1]; 10 mg/kg, p 0.026",significantly improved memory performance
same,effect on Ro 15-4513 binding in hippocampus,GABAA α5 receptor; 0.01-10 mg/kg,reduced; also recorded: blocked
same,effect on Ro 15-4513 levels (binding) in cerebellum,GABAA α5 receptor; 0.01-10 mg/kg,without affecting; also recorded: did not affect
same,GABAA α5 receptor occupancy,GABAA α5 receptor; 10 mg/kg,> 90%
"CC1(C)CC(=O)c2c(SCCCO)sc(-c3nccs3)c2C1 [6,6 dimethyl-3-(3-hydroxypropyl)thio-1-(thiazol-2-yl)-6,7-dihydro-2-benzothiophen-4(5H)-one]",time to find the escape platform,aged-impaired (AI) rats [2]; beginning of training (block 1),about 24 seconds
same,time to find the escape platform,aged-impaired (AI) rats [2]; end of training (block 4),about 9.6 seconds
same,number of crossings of target annulus compared to opposite annulus,aged-impaired (AI) rats [2]; [3],more often
same,time in target annulus compared to opposite annulus,aged-impaired (AI) rats [2]; [3],significantly more time in the target annulus
COc1ccc2c(c1)-n1nncc1Cc1c(C#CCc3cccc(F)c3)ncn1-2 [Compound 419],activation at 0.1 µM,α5β2γ2 subtype GABAAR,20 to 50%
COc1ccc2c(c1)-n1nncc1Cc1c(C#CCc3ccccc3OC(F)(F)F)ncn1-2 [Compound 420],activation at 0.1 µM,α5β2γ2 subtype GABAAR,5 to 20%
COCc1nnc2n1Cc1c(C#CCc3cccc(F)c3)ncn1-c1ccc(Cl)cc1-2 [Compound 421],activation at 0.1 µM,α5β2γ2 subtype GABAAR,20 to 50%
COCc1nnc2n1Cc1c(C#CCc3cccc(Cl)c3)ncn1-c1ccc(Cl)cc1-2 [Compound 422],activation at 0.1 µM,α5β2γ2 subtype GABAAR,20 to 50%
COCc1nnc2n1Cc1c(C#CCc3cccc(OC(F)(F)F)c3)ncn1-c1ccc(Cl)cc1-2 [Compound 423],activation at 0.1 µM,α5β2γ2 subtype GABAAR,5 to 20%
CC(C)C#Cc1ccc2c(c1)-n1nncc1Cc1c(Br)ncn1-2 [Compound 454],activation at 0.1 µM,α5β2γ2 subtype GABAAR,5 to 20%
CCOC(=O)c1ncn2c1CN(C)C(=O)c1cc(N=[N+]=[N-])ccc1-2 [Ro 15-4513],levels of Ro 15-4513 in hippocampus compared with cerebellum,"GABAA α5 receptor; tracer 1 μg/kg, after vehicle administration",> 5 fold
C#Cc1ccc2c(c1)C(c1ccccc1F)=N[C@H](C)c1c(C(=O)OCC)ncn1-2 [SH-053-2′F—R—CH3],number of spontaneously active DA neurons in the ventral tegmental area (VTA),"MAM-treated rats; MAM rats, systemic or infused into ventral HPC, to levels of saline-treated rats",reduces
same,increased locomotor response to amphetamine,MAM-treated rats; MAM-treated rats,reduced
same,cortical-evoked responses of HPC neurons,MAM-treated rats; saline-treated and MAM-treated animals,diminished
